Experimental findings from US20260327211A1, “MODULATORS OF A POTASSIUM CHANNEL AND OF TRPV1 CHANNEL AND USES THEREOF” (Bsense Bio Therapeutics Ltd., priority 2023, published 2026) are described below.

Molecules are shown by their SMILES. Entries after “also recorded” stand apart in the source; their conditions may differ.

Series [1] has as its target T1, adrenergic α2A (Homo sapiens, UniProt P08913).
T1 construct: Eurofins DiscoverX, USA
The series is described as follows: Functional selectivity panel, adrenergic α2A. Type of series: biochemical. The method, then:
A broad panel of 78 recombinant targets was tested for pharmacologic activity in vitro through a variety of functional assays (Eurofins DiscoverX, USA), as part of the National Institute of Neurological Disorders and Stroke (NINDS) Preclinical Screening Platform for Pain (PSPP) program. The biological targets for the in vitro profiling have been selected based on avoiding opioid receptor stimulation and targets known to be associated with adverse events or targeted by drugs of abuse. […] For each test, a reference compound was evaluated at the target of interest as a positive control.

Series [2] relates to HepG2 cells. Nature of the series: HepG2 toxicity, ATPlite. The settings on record: up to limit of solubility. Type of series: cell-based, human. The procedure: Cell culture: HepG2 cell-line cells were cultured in EMEM (ATCC 30-2033) medium supplemented with 10% fetal bovine serum (Biological Industries) in a humidified 5% CO2 incubator at 37° C.
ATPlite™ 1step Kit: ATPlite™ 1step kit (PerkinElmer) was used in a 384-wells format to assess potential liver toxicity using HepG2 cells. This is an ATP detection system based on firefly luciferase luminescence for the quantitative evaluation of proliferation and cytotoxicity of cells. ATP is a marker for cell viability because it is present in all metabolically active cells and its concentration declines very rapidly when the cells undergo necrosis or apoptosis.
According to an optimization process done to achieve uniform and consistent screening condition of molecules, the following protocol was established: Cells were seeded in 384-well, black-walled, clear-bottomed, at a density of 4000 cells per well […] and incubated overnight in their normal growth medium. On day two (48 hours before viability measurement), the tested compounds and the positive control were applied to the wells according to the plate design. […] 48 hours later, reconstituted lyophilized substrate solution was added to each well and the sealed 384-well microplate was mixed for 2 minutes at 1100 rpm in an orbital microplate and plates were incubated for 10 minutes in the dark at room temperature. Right after, luminescence was measured in the Tecan plate reader. To estimate the LD50 and LD25 values the data was fitted to sigmoidal regression using Prism-GraphPad. […]

Series [3] has as its system hTRPV1. The series is described as follows: hTRPV1 dual activity electrophysiology, CHO cells co-expressing hKv7.2/3 and hTRPV1. It counts as cell-based. The settings on record: rat DRG and dual CHO.
Series [4] deals with Salmonella typhimurium (TA98, TA100, TA1535, TA1537) and Escherichia coli WP2uvrA (pKM101). The series is described as follows: Mini-Ames assay. Type of series: cell-based. The settings on record: 5 strains, with and without S9. The procedure: The Mini-Ames assay was performed according to the regulatory guidelines. In brief, 5 strains were selected for testing: Salmonella typhimurium (TA98, TA100, TA1535, TA1537) and Escherichia coli WP2uvrA (pKM101). A standard six-well culture plate with top agar containing 0.6% (w/v) agar and 0.5% (w/v) sodium chloride was supplemented with 0.5 mM D-biotin and 0.5 mM L-histidine for Salmonella typhimurium strains or 0.5 mM D-biotin and 0.5 mM L-tryptophan for Escherichia coli WP2uvrA (pKM101). […] Average number of revertants for each dose group condition was compared to negative control, and cytotoxicity and precipitates were recorded.

The subject of series [5] is rat DRGs. Nature of the series: NGF-treated rat DRG neuropathic model, capsaicin-induced tetanic burst. Type of series: cell-based. Conditions: NGF 100 ng/ml pretreated. The procedure: DRGs treated with NGF show tetanic action potential burst in response to CAP application, mimicking neuropathic like response. See, Background Art FIG. 8A. NGF enhances TRPV1 function using Calcium-dependent fluorescence, F, relative to maximal fluorescence, Fmax, as a function of time from a single HEK293 cell stably transfected with TrkA and transiently transfected with hTRPV1. Pulses of capsaicin (100 nM, applied as shown at top) elicited submaximal increases in [Ca]i. Exposure to NGF (100 ng/mL, see top) enhanced the capsaicin induced calcium increase. Arrows show responses used for calculation of sensitization ratio.

T1 sequence (P08913 whole entry): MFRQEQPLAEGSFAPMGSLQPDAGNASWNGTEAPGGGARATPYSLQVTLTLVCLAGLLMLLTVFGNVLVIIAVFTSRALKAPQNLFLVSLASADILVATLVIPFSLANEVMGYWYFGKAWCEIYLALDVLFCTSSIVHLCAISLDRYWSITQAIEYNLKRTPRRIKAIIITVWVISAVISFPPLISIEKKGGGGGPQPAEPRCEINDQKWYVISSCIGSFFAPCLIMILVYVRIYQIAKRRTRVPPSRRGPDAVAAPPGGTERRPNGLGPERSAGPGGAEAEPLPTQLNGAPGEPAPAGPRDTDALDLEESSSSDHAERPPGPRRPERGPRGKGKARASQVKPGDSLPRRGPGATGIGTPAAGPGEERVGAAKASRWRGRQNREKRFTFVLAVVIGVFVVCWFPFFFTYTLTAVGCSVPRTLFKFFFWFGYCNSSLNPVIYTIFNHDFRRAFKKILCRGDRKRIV

Take `O=C(Cc1cncc(-n2cc(Cl)c3cc(Cl)cc(Cl)c32)c1)N[C@@H]1COC[C@H]1O` [Compound 661]: half-maximal inhibition in series [1] (IC50) required 6 µM. Also, the “HepG2 toxicity” value in series [2] is reported as “no evidence of toxicity up to the compound's limit of solubility”.
On to `O=C(Cc1nccc(-n2cc(Cl)c3cc(Cl)cc(Cl)c32)n1)NC1COCC1O` (stereo not drawn) [Compound 760], for which, in series [3], the IC50 was in the range of 0.0001 to 0.00023 µM. In series [4], the “Cytotoxic effect in Ames strains” value is given as “No significant cytotoxic effect” and the “Reversion rates” value is listed as “did not induce substantial dose-dependent increases in reversion rates”.
In the case of `Cc1cn(-c2ccc(F)c(CC(=O)NCC(C)(C)O)c2)c2c(Cl)cc(Cl)cc12` [Compound 421-6], in series [5], the “Effect on capsaicin induced tetanic action potential burst” value is listed as “alleviates the capsaicin induced tetanic action potential burst at levels below EC50; also recorded: reversible inhibition”.

As usually defined, the IC50 is the midpoint of a concentration-inhibition curve. A lower IC50 goes with higher potency.
